Experimental data as given in patent publication US20100261639A1, “TRIAZOLE-BASED AMINOGLYCOSIDE-PEPTIDE CONJUGATES AND METHODS OF USE” (UNIVERSITY OF MANITOBA, priority 2007, published 2010).
Values after ≈ are worked out from the molar mass of the structure shown.

System: S. aureus ATCC 29213
Experiment: MIC, macrobroth dilution, S. aureus ATCC 29213
Format: cell-based, Staphylococcus aureus
Details: visible growth after 24 h at 37° C.
Experimental: The microbiological activities of the neomycin-peptide conjugates and kanamycin-peptide conjugates against both American Type Culture Collection (ATCC) reference and clinical strains of Staphylococcus aureus, MRSA, Staphylococcus epidermidis, MRSE, Enterococcus faecalis, Enterococcus faecium, Streptococcus pneumoniae, E. coli, Pseudomonas aeruginosa, Stenotrophomonas maltophilia, Acinetobacter baumannii, and Klebsiella pneumoniae were assessed. Special focus was given to assess activity against multi-drug resistant strains of these pathogens. Antibiotic susceptibility testing was performed using the macrobroth dilution method as per Clinical Laboratory Standards Institute-CLSI (formerly National Committee for Clinical and Laboratory Standards-NCCLS) (Clinical and Laboratory Standards Institute, 2006). MIC values defined as the lowest concentration of antimicrobial agent which inhibited the development of visible growth after 24 h at 37° C.

minimal inhibitory concentration (MIC): 2 µg/mL (≈ 3.25 µM)
Compound: NC[C@@H]1O[C@H](O[C@H]2[C@@H](O)[C@H](O[C@@H]3[C@@H](O)[C@H](N)C[C@H](N)[C@H]3O[C@H]3O[C@H](CN)[C@@H](O)[C@H](O)[C@H]3N)O[C@@H]2CO)[C@H](N)[C@@H](O)[C@@H]1O [Neomycin B, neomycin B]
